From ChEMBL document CHEMBL1127928, “Macrolide-type motilin receptor agonists: Assessment of the biological value of the 2- and 4-hydroxyl groups of acid-stable 8,9-anhydroerythromycin A 6,9-hemiacetals” (Bioorg Med Chem Lett, 1994)
Converted amounts (≈) assume the structure as drawn.

What was measured:
[1] = test system: Canis familiaris; assay: In vivo contractile activity in the gastric antrum and the small intestine in fasted conscious dogs upon intragastric administration was determined; format: functional, Canis lupus familiaris
[2] = test system: Canis familiaris; assay: In vivo contractile activity in the gastric antrum and the small intestine in fasted conscious dogs upon intravenous administration was determined; format: functional, Canis lupus familiaris
[3] = target: T1, Motilin receptor (Oryctolagus cuniculus, UniProt A5A4K8); assay: In vitro binding affinity towards motilin receptor was determined after treatment with hydrochloric acid in rabbit small intestinal smooth muscle tissue homogenate; format: tissue-based
T1 sequence (A5A4K8 whole entry): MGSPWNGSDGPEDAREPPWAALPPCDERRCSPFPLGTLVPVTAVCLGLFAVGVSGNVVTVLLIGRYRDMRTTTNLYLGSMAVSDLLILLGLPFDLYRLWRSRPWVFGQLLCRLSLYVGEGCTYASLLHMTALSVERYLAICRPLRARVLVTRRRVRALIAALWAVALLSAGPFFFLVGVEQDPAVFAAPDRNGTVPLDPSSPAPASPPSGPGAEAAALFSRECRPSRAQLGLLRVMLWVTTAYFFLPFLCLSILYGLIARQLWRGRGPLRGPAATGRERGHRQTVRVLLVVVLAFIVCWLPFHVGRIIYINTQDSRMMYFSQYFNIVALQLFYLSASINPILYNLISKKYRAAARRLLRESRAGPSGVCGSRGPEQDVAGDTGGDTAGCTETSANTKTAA

[4] = target: T1, Motilin receptor; assay: In vitro binding affinity towards motilin receptor was determined in rabbit small intestinal smooth muscle tissue homogenate; format: tissue-based
[5] = organism: Oryctolagus cuniculus; assay: In vitro contractile activity was measured in the rabbit duodenum preparation; format: functional
[6] = test system: Streptococcus pneumoniae; assay: Tested for antimicrobial activity against Streptococcus pneumoniae No. 12; format: functional
[7] = test system: Bacillus subtilis; assay: Tested for antimicrobial activity against Bacillus subtilis ATCC 6633; format: functional
[8] = test system: Klebsiella pneumoniae; assay: Tested for antimicrobial activity against Klebsiella pneumoniae IFO 3512; format: functional
[9] = test system: Staphylococcus aureus; assay: Tested for antimicrobial activity against Staphylococcus aureus 209P; format: functional

IC50 [3] [nM] | IC50 [4] [nM] | EC50 [5] [nM] | MIC [6] [µg/mL] | MIC [7] [µg/mL] | MIC [8] [µg/mL] | MIC [9] [µg/mL] | MIC ([6]; read-out: MIC) [µM] | SMILES | MI100 [1] [µg/kg] | MI100 [2] [µg/kg]
3.8 | 3.47 | 9.12 | 100 | – | – | – | – | CCC1OC(=O)C(C)C(O[C@H]2C[C@@](C)(OC)CC(C)O2)C(C)[C@@H](OC2OC(C)CC(N(C)CC)[C@H]2O)[C@]2(C)CC(C)=C(O2)[C@H](C)C(=O)[C@]1(C)OC (some centres undefined) | 0.2 | 0.3
– | 1.86 | 209 | – | – | – | – | – | CCC1OC(=O)C(C)C(O[C@H]2C[C@@](C)(OC)CC(C)O2)C(C)[C@@H](OC2CC(N(C)C(C)C)CC(C)O2)[C@]2(C)CC(C)=C(O2)[C@H](C)C(=O)[C@]1(C)OC (some centres undefined) | – | >70
3.89 | 2.29 | 10.5 | – | 50 (≈ 70.2 µM) | 100 (≈ 140 µM) | 100 (≈ 140 µM) | 1600 | CCC1OC(=O)C(C)C(O[C@H]2C[C@@](C)(OC)CC(C)O2)C(C)[C@@H](OC2OC(C)CC(N(C)C)[C@H]2O)[C@]2(C)CC(C)=C(O2)[C@H](C)C(=O)[C@]1(C)OC (some centres undefined) | 1.2 | 0.4
1.78 | 2.51 | 6.17 | 100 | – | – | – | – | CCC1OC(=O)C(C)C(O[C@H]2C[C@@](C)(OC)CC(C)O2)C(C)[C@@H](OC2OC(C)CC(N(C)C(C)C)[C@H]2O)[C@]2(C)CC(C)=C(O2)[C@H](C)C(=O)[C@]1(C)OC (some centres undefined) | 0.3 | 0.09
